Reference: patent publication US7772270B2, “Imino acid derivatives as inhibitors of matrix metalloproteinases” (sanofi-aventis Deutschland GmbH, priority 2003, dated 2010)
pIC50: −log10 of the molar value.

Key:
[1] = molecular target: T1, catalytic domain of human neutrophilic collagenase (MMP-8) (Homo sapiens, UniProt P22894); test: Enzymatic activity of the catalytic domain of human neutrophilic collagenase (MMP-8), fluorogenic substrate; format: biochemical; settings: 15 min preincubation, pH 7.5, fluorescence 328/393 nm
T1 construct: catalytic domain of human stromelysin (MMP-3) and neutrophilic collagenase (MMP-8); made in house
T1 sequence (P22894 100-262 limits assumed): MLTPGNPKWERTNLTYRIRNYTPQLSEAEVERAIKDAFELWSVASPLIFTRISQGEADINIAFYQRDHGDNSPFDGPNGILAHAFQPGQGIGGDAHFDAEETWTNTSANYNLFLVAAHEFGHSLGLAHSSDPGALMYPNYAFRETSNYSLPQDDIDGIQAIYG
Method: (§1) The two enzymes, i.e., stromelysin (MMP-3) and neutrophilic collagenase (MMP-8), were prepared as described in Ye et al. (Biochemistry; 31 (1992) pages 11231-11235). For measuring enzymatic activity or the effect of an enzyme inhibitor, 70 μl of buffer solution and 10 μl of enzyme solution are incubated, for 15 minutes and at a physiological pH, with 10 μl of a 10% (v/v) aqueous solution of dimethyl sulfoxide containing the enzyme inhibitor, where appropriate. After 10 μl of a 10% (v/v) aqueous solution of dimethyl sulfoxide containing 1 mmol of the substrate/l have been added, the enzyme reaction is monitored by fluorescence spectroscopy (328 nm (ex)/393 nm(em)).
(§2) The enzyme activity is recorded as increase in […]/minute. The IC50 values listed in table 2 are determined as the inhibitor concentrations that in each case lead to 50% inhibition of the enzyme.
(§3) The buffer solution contains 0.05% Brij (Sigma, Deisenhofen, Germany) and also 0.1 mol of Tris/HCl/l, 0.1 mol of NaCl/l, 0.01 mol of CaCl2/l and 0.1 mol of piperazine-N,N′-bis[2-ethanesulfonic acid]/l (pH=7.5). The enzyme solution contains 5 μg/ml of one of the enzyme domains prepared as described in Ye et al. The substrate solution contains 1 mmol of the fluorogenic substrate (7-methoxycoumarin-4-yl)acetyl-Pro-Leu-Gly-Leu-3-(2′,4′-dinitrophenyl)-L-2,3-diaminopropionyl-Ala-Arg-NH2/A (Bachem, Heidelberg, Germany).

[2] = molecular target: T2, catalytic domain of human stromelysin (MMP-3) (Homo sapiens, UniProt P08254); test: Enzymatic activity of the catalytic domain of human stromelysin (MMP-3), fluorogenic substrate; format: biochemical; settings: 15 min preincubation, pH 7.5, fluorescence 328/393 nm
T2 construct: enzymatic activity of the catalytic domain of human stromelysin (MMP-3); made in house
T2 sequence (P08254 100-272 limits assumed): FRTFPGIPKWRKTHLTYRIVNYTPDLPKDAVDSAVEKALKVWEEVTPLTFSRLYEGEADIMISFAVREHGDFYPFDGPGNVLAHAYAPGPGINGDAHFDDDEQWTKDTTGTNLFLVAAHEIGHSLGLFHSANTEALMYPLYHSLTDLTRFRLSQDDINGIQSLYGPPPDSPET
Method: as §1, §2, §3

Row | SMILES | pIC50 [1] | pIC50 [2]
1 | O=C(NO)C1C[C@H]2CCC[C@H]2N1S(=O)(=O)c1ccc(-c2ccc(N3CCN(c4ccc(F)cc4)CC3)cc2)cc1 (single isomer, unassigned) [Example 63] | 5.43 | 6.70
2 | O=C(NO)C1C[C@H]2CCC[C@H]2N1S(=O)(=O)c1ccc(I)cc1 (single isomer, unassigned) [Example 65] | 7.00 | 6.52
3 | O=C(O)C1C[C@H]2CCC[C@H]2N1S(=O)(=O)CCc1ccc(-c2ccc(Br)cc2)cc1 (stereo partly shown) [Example 13] | 6.70 | 6.70
4 | O=C(O)[C@H]1C[C@H]2CCC[C@H]2N1S(=O)(=O)c1ccc(-c2ccc(N3CCCC3)cc2)cc1 [Example 21] | 8.40 | 6.80
5 | O=C(O)[C@H]1C[C@H]2CCC[C@H]2N1S(=O)(=O)c1ccc(-c2ccc(N3CCN(c4ccc(F)cc4)CC3)cc2)cc1 [Example 29] | 5.00 | < 5.00
6 | O=C(NO)[C@H]1C[C@H]2CCC[C@H]2N1S(=O)(=O)/C=C/c1ccccc1 [Example 57] | 6.49 | 6.48
7 | O=C(NO)[C@H]1C[C@H]2CCC[C@H]2N1S(=O)(=O)c1ccc(-c2ccc([N+](=O)[O-])cc2)cc1 [Example 61] | 8.52 | 7.66
8 | O=C(NO)[C@H]1C[C@H]2CCC[C@H]2N1S(=O)(=O)c1ccc(-c2ccccc2)cc1 [Example 64] | 7.70 | 7.00
